In patent publication US20240124872A1, “IDENTIFICATION OF GENOMIC TARGETS” (University of Leeds, priority 2021, published 2024):

Columns and labels:
[1] = system: TRPA1 knockout mice; conditions: cited from earlier work
[2] = system: HeLa cells stably expressing CaMPARI-H396K; test: AITC responsiveness via Fura-2 calcium imaging; type: cell-based; conditions: unmodified HeLa cells stably expressing CaMPARI-H396K (HeLa-C); FIG. 4
Method: FIG. 4 provides validation of TAGS (AITC-screen for TRPA1). a) a Piggy-Bac library was generated in Hela-C cells, stimulated with 100 uM AITC and co-incident photo-conversion light, and sorted via FACS based on CaMPARI red/green signal. b) Positive clones were collected as single cells, expanded into clonal populations, and testing for AITC responsiveness via Fura-2 calcium imaging. Percent responding cells are shown for each population. c-d) Example Fura-2 imaging traces. c) phenotypic negativity of HeLa-C cells. d) Example traces from population #22 in b. e) Genotyping of 100% responders. […] Blue arrows highlight transcription start site (TSS) of TRPA1. Red arrows highlight the true common insertion site (CIS) upstream of the TSS, found in every clone genotyped.
A test sample from each positive clonal line was loaded with the fluorescent calcium indicator Fura-2AM for 30 minutes in regular media supplemented with 1 ul/ml PluronicF127, washed with Ringer solution, and tested for positivity for the phenotype in question using conventional fluorescent microscopy (see FIG. 4a-d). A further test sample from confirmed positive clonal lines was transfected (as described above) with the pCAG-Cre vector (Addgene) to induce transient Cre recombinase expression. Phenotypic positivity was then re-tested as above, and populations in which the phenotype […] are discarded. […]

SMILES: C=CCN=C=S [AITC]
- sensitivity to AITC [1]: lose all sensitivity
- AITC responses (calcium signalling) [2]: phenotypically negative
